ChEMBL document CHEMBL5233220, “A review of currently identified small molecule modulators of microRNA function” (Eur J Med Chem, 2020)
Several values for one entry are separate records, joined by “and”; a condition that tells them apart may be missing. Equal entries are not always repeated. Structures can show the parent of a compound that is named as a salt.

Experiments:
[1] = Inhibition of pre-miR-372 (unknown origin) by FRET assay
[2] = Inhibition of pre-miR-373 (unknown origin) by FRET assay
[3] = Inhibition of pre-miR-373 (unknown origin) at 250 uM by FRET assay relative to control
Protein lin-28 homolog A = target: T1, Protein lin-28 homolog A (Homo sapiens, UniProt Q9H9Z2); assay: Inhibition of LIN28A (unknown origin) by FRET assay
T1 sequence (Q9H9Z2 whole entry): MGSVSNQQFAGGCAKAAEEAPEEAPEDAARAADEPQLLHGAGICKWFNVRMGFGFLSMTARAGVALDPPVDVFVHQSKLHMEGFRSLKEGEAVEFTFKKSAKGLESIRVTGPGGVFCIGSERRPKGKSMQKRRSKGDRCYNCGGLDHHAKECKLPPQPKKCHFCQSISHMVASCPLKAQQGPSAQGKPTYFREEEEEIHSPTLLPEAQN

[4] = Binding affinity to pre-miR-373 (unknown origin) assessed as dissociation constant
[5] = Binding affinity to pre-miR-21 (unknown origin) assessed as dissociation constant by microarray assay
[6] = Binding affinity to pre-miR-21 (unknown origin) assessed as melting temperature by differential scanning fluorimetry analysis
BCL1 = assay: Inhibition of cell growth in mouse BCL1 cells; assay type: functional, cell-based
[7] = Inhibition of pre-miR-21 (unknown origin) by FP assay
[8] = Binding affinity to pre-miR-21 (unknown origin) at A bulge assessed as dissociation constant by dicer assay
[9] = Binding affinity to miR-96 (unknown origin) assessed as dissociation constant; design: species or system Homo sapiens
Protein argonaute-2 = Protein argonaute-2 (Homo sapiens, UniProt Q9UKV8); assay: Inhibition of AGO2 (unknown origin)
[10] = Inhibition of miR-27a (unknown origin) maturation at 5 uM relative to control
[11] = Inhibition of miR-122 (unknown origin) assessed as relative light unit by luciferase assay
[12] = Inhibition of pre-miR-21 (unknown origin) at 5 uM by FP assay relative to control
Huh-7 = assay: Inhibition of miR-122 in human Huh-7 cells relative to control; assay type: cell-based; settings: dose or concentration not given here
[13] = Inhibition of miR-122 (unknown origin) by luciferase assay
[14] = Binding affinity to pre-miR-21 (unknown origin) assessed as dissociation constant by fluorescence-based assay
[15] = Activation of miR-122 (unknown origin) assessed as relative light unit by luciferase assay; settings: filed as activator

Sequence of Protein argonaute-2 (Q9UKV8 whole entry): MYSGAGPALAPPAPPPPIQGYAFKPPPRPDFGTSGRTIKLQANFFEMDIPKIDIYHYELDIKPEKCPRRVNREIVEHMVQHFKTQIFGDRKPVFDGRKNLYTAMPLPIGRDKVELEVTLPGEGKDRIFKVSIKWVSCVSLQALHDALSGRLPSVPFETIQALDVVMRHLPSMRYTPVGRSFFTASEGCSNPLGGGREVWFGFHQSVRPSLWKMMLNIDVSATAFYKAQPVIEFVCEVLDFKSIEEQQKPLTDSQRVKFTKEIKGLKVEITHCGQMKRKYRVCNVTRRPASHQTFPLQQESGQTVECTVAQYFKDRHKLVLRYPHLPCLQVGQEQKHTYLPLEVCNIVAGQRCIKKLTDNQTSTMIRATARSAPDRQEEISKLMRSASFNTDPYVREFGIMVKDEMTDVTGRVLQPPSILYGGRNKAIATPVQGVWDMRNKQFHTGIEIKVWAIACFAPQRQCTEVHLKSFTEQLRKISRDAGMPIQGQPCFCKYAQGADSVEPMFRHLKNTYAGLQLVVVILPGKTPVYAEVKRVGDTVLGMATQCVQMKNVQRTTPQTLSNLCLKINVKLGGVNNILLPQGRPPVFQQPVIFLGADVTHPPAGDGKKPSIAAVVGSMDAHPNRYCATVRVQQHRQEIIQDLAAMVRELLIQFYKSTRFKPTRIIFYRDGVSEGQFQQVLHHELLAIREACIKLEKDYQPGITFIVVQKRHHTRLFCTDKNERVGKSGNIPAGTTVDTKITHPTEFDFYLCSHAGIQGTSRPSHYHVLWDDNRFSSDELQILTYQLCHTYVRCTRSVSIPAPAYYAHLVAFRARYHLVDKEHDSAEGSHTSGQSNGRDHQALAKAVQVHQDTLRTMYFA

## NC[C@@H]1O[C@H](O[C@H]2[C@@H](O)[C@H](O[C@@H]3[C@@H](O)[C@H](N)C[C@H](N)[C@H]3O[C@H]3O[C@H](CN)[C@@H](O)[C@H](O)[C@H]3N)O[C@@H]2n2cc(CCC(=O)NCC(=O)Nc3nc4ccccc4[nH]3)nn2)[C@H](N)[C@@H](O)[C@@H]1O
[1]
  IC50: 10.3 µM
[2]
  IC50: 8.57 µM
[3]
  inhibition: 20%

## NC[C@@H]1O[C@H](O[C@H]2[C@@H](O)[C@H](O[C@@H]3[C@@H](O)[C@H](N)C[C@H](N)[C@H]3O[C@H]3O[C@H](CN)[C@@H](O)[C@H](O)[C@H]3N)O[C@@H]2n2cc(Cn3cnc(-c4cccc(NC(=O)c5ccccc5)c4)c3)nn2)[C@H](N)[C@@H](O)[C@@H]1O
[1]
  IC50: 8.3 µM
[2]
  IC50: 8.96 µM
[3]
  inhibition: 20%

## CCOc1cccc2c1N[C@@H](c1ccc(C(=O)O)cc1)[C@H]1CC=C[C@@H]21
Protein lin-28 homolog A
  IC50: 7 µM

## CC(=O)Nc1csc(-c2cccc(NC(=O)CCc3cn([C@H]4O[C@@H](O[C@@H]5[C@@H](O)[C@H](N)C[C@H](N)[C@H]5O[C@H]5O[C@H](CN)[C@@H](O)[C@H](O)[C@H]5N)[C@H](O)[C@@H]4O[C@H]4O[C@@H](CN)[C@@H](O)[C@H](O)[C@H]4N)nn3)c2)n1
[1]
  IC50: 2.43 µM
[2]
  IC50: 5.13 µM
[4]
  Kd: 14 nM
[3]
  inhibition: 20%

## OC(CNc1cccc(Cl)c1)Cn1c2ccc(Br)cc2c2cc(Br)ccc21 (stereo unspecified)
[5]
  Kd: 1200 nM and 800 nM

## COc1ccc(NCC(O)Cn2c3ccc(Br)cc3c3cc(Br)ccc32)cc1 (stereo unspecified)
[5]
  Kd: 700 nM and 800 nM
[6]
  Tm: -2.3 °C

## O=[N+]([O-])c1ccc2nc(-c3ccccc3O)nc(-c3ccccc3)c2c1
BCL1
  EC50: 20 µM

## NC(Cc1cc(O)c(O)cc1O)C(=O)O (stereo unspecified)
[7]
  IC50: 7.05 µM

## COc1cccc2c1C(=O)c1c(O)c3c(c(O)c1C2=O)C[C@@](O)(C(=O)CO)C[C@@H]3O[C@H]1C[C@H](N)[C@@H](O)[C@H](C)O1 [EPIRUBICIN]
[8]
  Kd: 24 nM

## CCCN(CC(=O)N(CCC)CC(=O)N(CC(N)=O)Cc1cn(CCCNC(=O)CCCOc2c(C(C)(C)C)cc(-c3nc4cc(N5CCN(C)CC5)ccc4[nH]3)cc2C(C)(C)C)nn1)C(=O)CCCOc1cccc(-c2nc3ccc(-c4nc5ccc(N6CCN(C)CC6)cc5[nH]4)cc3[nH]2)c1
[9]
  Kd: 200 nM

## c1ccc(CN(CCN(Cc2ccccn2)Cc2ccccn2)Cc2ccccn2)nc1
Protein lin-28 homolog A
  IC50: 2.5 µM

## NCCc1cc(O)c(O)cc1O [OXIDOPAMINE HYDROCHLORIDE]
Protein argonaute-2
  IC50: 1.61 µM

## CC1(C)Oc2cc(N3CCN(C(=O)OCc4ccccc4)CC3)c([N+](=O)[O-])cc2-c2c1cnn2-c1ccc(C(=O)O)cc1
Protein lin-28 homolog A
  IC50: 4.03 µM

## CN[C@@H]1[C@H](O[C@H]2[C@H](O[C@H]3[C@H](O)[C@@H](O)[C@H](N=C(N)N)[C@@H](O)[C@@H]3N=C(N)N)O[C@@H](C)[C@]2(O)C=O)O[C@@H](CO)[C@H](O)[C@H]1O
[10]
  inhibition: 25%

## O=[N+]([O-])c1ccc2nc(-c3ccccc3)nc(-c3ccccc3)c2c1
BCL1
  EC50: 20 µM

## NC[C@H]1O[C@H](O[C@H]2[C@H](O)[C@@H](O[C@H]3O[C@H](CO)[C@@H](O)[C@H](N)[C@H]3O)[C@H](N)C[C@@H]2N)[C@H](N)C[C@@H]1O
[10]
  inhibition: 10%

## O=C(Nc1ccc2ccccc2c1)c1ccc([N+](=O)[O-])cc1
[11]
  Activity: 6.2 RLU

## CCCN(CC(=O)N(CCC)CC(=O)N(CC(=O)NCCCNCCCNC(=O)c1csc(-c2csc(CCNC(=O)[C@@H](NC(=O)[C@@H](C)[C@H](O)[C@@H](C)NC(=O)[C@@H](NC(=O)c3nc([C@H](CC(N)=O)NC[C@H](N)C(N)=O)nc(N)c3C)[C@@H](O[C@@H]3O[C@@H](CO)[C@@H](O)[C@H](O)[C@@H]3O[C@H]3O[C@H](CO)[C@@H](O)[C@H](OC(N)=O)[C@@H]3O)c3c[nH]cn3)[C@@H](C)O)n2)n1)Cc1cn(CCCNC(=O)CCCOc2c(C(C)(C)C)cc(-c3nc4ccc(N5CCN(C)CC5)cc4[nH]3)cc2C(C)(C)C)nn1)C(=O)CCCOc1cccc(-c2nc3ccc(-c4nc5ccc(N6CCN(C)CC6)cc5[nH]4)cc3[nH]2)c1
[9]
  Kd: 64 nM

## COc1cccc2c1C(=O)c1c(O)c3c(c(O)c1C2=O)C[C@@](O)(C(=O)CO)C[C@@H]3O[C@H]1C[C@H](N)[C@H](O)[C@H](C)O1 [DOXORUBICIN]
[8]
  Kd: 58 nM

## Cc1ccc(C(=O)Nc2ccc(S(=O)(=O)O)c3cc(S(=O)(=O)O)cc(S(=O)(=O)O)c23)cc1NC(=O)c1cccc(NC(=O)Nc2cccc(C(=O)Nc3cc(C(=O)Nc4ccc(S(=O)(=O)O)c5cc(S(=O)(=O)O)cc(S(=O)(=O)O)c45)ccc3C)c2)c1 [SURAMIN]
Protein argonaute-2
  IC50: 0.69 µM

## CCOc1ccc(NCC(O)Cn2c3ccc(Br)cc3c3cc(Br)ccc32)cc1 (stereo unspecified)
[5]
  Kd: 1200 nM

## NC[C@@H]1O[C@H](O[C@H]2[C@@H](O)[C@H](O[C@@H]3[C@@H](O)[C@H](N)C[C@H](N)[C@H]3O[C@H]3O[C@H](CN)[C@@H](O)[C@H](O)[C@H]3N)O[C@@H]2CSCCNC(=O)CCCCCn2cc(Oc3ccc4c(c3)C(=O)N(O)C(=O)C4)nn2)[C@H](N)[C@@H](O)[C@@H]1O
[12]
  inhibition: 90%

## CC(=O)N(C)c1cccc(-c2ccc3nnc(C)n3n2)c1
Protein lin-28 homolog A
  IC50: 8 µM

## O=C(Nc1ccc2ccccc2c1)c1ccc(Cl)cc1Cl
[11]
  Activity: 7.73 RLU
Huh-7
  inhibition: 48%
[13]
  IC50: 3000 nM

## O=S(=O)(c1ccc2c(c1)CCCN2)N1CCC[C@H]2CCCC[C@@H]21
[11]
  Activity: 0.6 RLU
Huh-7
  inhibition: 47%
[13]
  IC50: 600 nM

## CCCCNC(=O)Nc1ccc2oc(CCc3cn([C@H]4O[C@@H](O[C@@H]5[C@@H](O)[C@H](N)C[C@H](N)[C@H]5O[C@H]5O[C@H](CN)[C@@H](O)[C@H](O)[C@H]5N)[C@H](O)[C@@H]4O[C@H]4O[C@@H](CN)[C@@H](O)[C@H](O)[C@H]4N)nn3)nc2c1
[1]
  IC50: 16.3 µM
[2]
  IC50: 20.8 µM
[3]
  inhibition: 20%

## NC[C@@H]1O[C@H](O[C@H]2[C@@H](O)[C@H](O[C@@H]3[C@@H](O)[C@H](N)C[C@H](N)[C@H]3O[C@H]3O[C@H](CN)[C@@H](O)[C@H](O)[C@H]3N)O[C@@H]2n2cc(CCc3nc4cc(NC(=O)Nc5ccccc5)ccc4o3)nn2)[C@H](N)[C@@H](O)[C@@H]1O
[1]
  IC50: 4.17 µM
[2]
  IC50: 0.54 µM
[4]
  Kd: 14 nM
[3]
  inhibition: 20%

## C/C(=N\NC(=O)c1ccccn1)c1c(C)[nH]n(-c2ccccc2)c1=O
[14]
  Kd: 109 µM

## CC(=O)c1ccc(C(=O)Nc2ccc3ccccc3c2)cc1
[11]
  Activity: 6.7 RLU

## O=[N+]([O-])c1ccc2nc(-c3ccccc3[N+](=O)[O-])nc(-c3ccccc3)c2c1
BCL1
  EC50: 20 µM

## Cc1ccccc1NCC(O)Cn1c2ccc(Br)cc2c2cc(Br)ccc21 (stereo unspecified)
[5]
  Kd: 2300 nM
[6]
  Tm: -5.1 °C

## N=C(N)NCc1ccc(Oc2ccccc2)cc1
Protein argonaute-2
  IC50: > 1000 µM

## CN(C)CCN1C(=O)c2cccc3cccc(c23)C1=O
[15]
  Activity: 0.18 RLU

## O=C(O)c1ccc2nc3c4c(O)ccc(O)c4c(=O)c(Cl)c-3oc2c1
[7]
  IC50: 4.71 µM

## CCCCCCNS(=O)(=O)c1ccc2c(c1)CCCN2
[11]
  Activity: 11.9 RLU

## CCCOc1ccc(NCC(O)Cn2c3ccc(Br)cc3c3cc(Br)ccc32)cc1 (stereo unspecified)
[5]
  Kd: 2200 nM

## COc1ccccc1CCNC1CC(=O)C(c2ccc(C)cc2)C1=O (stereo unspecified)
[14]
  Kd: 38 µM

## O=c1cc(N2CCC(N3CCCC3)CC2)c2ccccc2o1
[14]
  Kd: 23 µM

## CCCCNC(=O)Nc1cccc(-c2cn(Cc3cn([C@H]4O[C@@H](O[C@@H]5[C@@H](O)[C@H](N)C[C@H](N)[C@H]5O[C@H]5O[C@H](CN)[C@@H](O)[C@H](O)[C@H]5N)[C@H](O)[C@@H]4O[C@H]4O[C@@H](CN)[C@@H](O)[C@H](O)[C@H]4N)nn3)cn2)c1
[1]
  IC50: 25.6 µM
[2]
  IC50: 17.3 µM
[3]
  inhibition: 20%

## NC[C@@H]1O[C@H](O[C@H]2[C@@H](O)[C@H](O[C@@H]3[C@@H](O)[C@H](N)C[C@H](N)[C@H]3O[C@H]3O[C@H](CN)[C@@H](O)[C@H](O)[C@H]3N)O[C@@H]2CO)[C@H](N)[C@@H](O)[C@@H]1O [FRAMYCETIN]
[1]
  IC50: 125 µM
[2]
  IC50: 178 µM
[10]
  inhibition: 25%
[3]
  inhibition: 100%

## NC[C@H]1O[C@H](O[C@H]2[C@H](O)[C@@H](O[C@H]3O[C@H](CO)[C@@H](O)[C@H](N)[C@H]3O)[C@H](N)C[C@@H]2N)[C@H](O)[C@@H](O)[C@@H]1O
[10]
  inhibition: 25%

## O=S(=O)(Nc1ccccc1)c1ccc2c(c1)CCCN2
[11]
  Activity: 9.9 RLU

## OC(CNc1ccc(N2CCOCC2)cc1)Cn1c2ccc(Br)cc2c2cc(Br)ccc21 (stereo unspecified)
[5]
  Kd: 2100 nM
